Source: ChEMBL document CHEMBL6103629 (J Med Chem, 2025)
Active and inactive are the calls of the source. The rule behind the calls is not given here.

What was measured:
LoVo [1] = assay: Antiproliferative activity against human LoVo cells assessed as reduction in cell viability incubated for 120 hrs by Cell-titer Glo luminescent assay
CWR22R [2] = assay: Antiproliferative activity against human 22Rv1 cells incubated for 120 hrs by Cell-titer Glo luminescent assay; details: 22Rv1, 120 h
[3] = target: Serine/threonine-protein kinase ATR (Homo sapiens, UniProt Q13535); assay: Inhibition of ATR (unknown origin) assessed as reduction in p53 phosphorylation level incubated for 30 mins by TR-FRET assay
Serine/threonine-protein kinase ATR, sequence (Q13535 whole entry): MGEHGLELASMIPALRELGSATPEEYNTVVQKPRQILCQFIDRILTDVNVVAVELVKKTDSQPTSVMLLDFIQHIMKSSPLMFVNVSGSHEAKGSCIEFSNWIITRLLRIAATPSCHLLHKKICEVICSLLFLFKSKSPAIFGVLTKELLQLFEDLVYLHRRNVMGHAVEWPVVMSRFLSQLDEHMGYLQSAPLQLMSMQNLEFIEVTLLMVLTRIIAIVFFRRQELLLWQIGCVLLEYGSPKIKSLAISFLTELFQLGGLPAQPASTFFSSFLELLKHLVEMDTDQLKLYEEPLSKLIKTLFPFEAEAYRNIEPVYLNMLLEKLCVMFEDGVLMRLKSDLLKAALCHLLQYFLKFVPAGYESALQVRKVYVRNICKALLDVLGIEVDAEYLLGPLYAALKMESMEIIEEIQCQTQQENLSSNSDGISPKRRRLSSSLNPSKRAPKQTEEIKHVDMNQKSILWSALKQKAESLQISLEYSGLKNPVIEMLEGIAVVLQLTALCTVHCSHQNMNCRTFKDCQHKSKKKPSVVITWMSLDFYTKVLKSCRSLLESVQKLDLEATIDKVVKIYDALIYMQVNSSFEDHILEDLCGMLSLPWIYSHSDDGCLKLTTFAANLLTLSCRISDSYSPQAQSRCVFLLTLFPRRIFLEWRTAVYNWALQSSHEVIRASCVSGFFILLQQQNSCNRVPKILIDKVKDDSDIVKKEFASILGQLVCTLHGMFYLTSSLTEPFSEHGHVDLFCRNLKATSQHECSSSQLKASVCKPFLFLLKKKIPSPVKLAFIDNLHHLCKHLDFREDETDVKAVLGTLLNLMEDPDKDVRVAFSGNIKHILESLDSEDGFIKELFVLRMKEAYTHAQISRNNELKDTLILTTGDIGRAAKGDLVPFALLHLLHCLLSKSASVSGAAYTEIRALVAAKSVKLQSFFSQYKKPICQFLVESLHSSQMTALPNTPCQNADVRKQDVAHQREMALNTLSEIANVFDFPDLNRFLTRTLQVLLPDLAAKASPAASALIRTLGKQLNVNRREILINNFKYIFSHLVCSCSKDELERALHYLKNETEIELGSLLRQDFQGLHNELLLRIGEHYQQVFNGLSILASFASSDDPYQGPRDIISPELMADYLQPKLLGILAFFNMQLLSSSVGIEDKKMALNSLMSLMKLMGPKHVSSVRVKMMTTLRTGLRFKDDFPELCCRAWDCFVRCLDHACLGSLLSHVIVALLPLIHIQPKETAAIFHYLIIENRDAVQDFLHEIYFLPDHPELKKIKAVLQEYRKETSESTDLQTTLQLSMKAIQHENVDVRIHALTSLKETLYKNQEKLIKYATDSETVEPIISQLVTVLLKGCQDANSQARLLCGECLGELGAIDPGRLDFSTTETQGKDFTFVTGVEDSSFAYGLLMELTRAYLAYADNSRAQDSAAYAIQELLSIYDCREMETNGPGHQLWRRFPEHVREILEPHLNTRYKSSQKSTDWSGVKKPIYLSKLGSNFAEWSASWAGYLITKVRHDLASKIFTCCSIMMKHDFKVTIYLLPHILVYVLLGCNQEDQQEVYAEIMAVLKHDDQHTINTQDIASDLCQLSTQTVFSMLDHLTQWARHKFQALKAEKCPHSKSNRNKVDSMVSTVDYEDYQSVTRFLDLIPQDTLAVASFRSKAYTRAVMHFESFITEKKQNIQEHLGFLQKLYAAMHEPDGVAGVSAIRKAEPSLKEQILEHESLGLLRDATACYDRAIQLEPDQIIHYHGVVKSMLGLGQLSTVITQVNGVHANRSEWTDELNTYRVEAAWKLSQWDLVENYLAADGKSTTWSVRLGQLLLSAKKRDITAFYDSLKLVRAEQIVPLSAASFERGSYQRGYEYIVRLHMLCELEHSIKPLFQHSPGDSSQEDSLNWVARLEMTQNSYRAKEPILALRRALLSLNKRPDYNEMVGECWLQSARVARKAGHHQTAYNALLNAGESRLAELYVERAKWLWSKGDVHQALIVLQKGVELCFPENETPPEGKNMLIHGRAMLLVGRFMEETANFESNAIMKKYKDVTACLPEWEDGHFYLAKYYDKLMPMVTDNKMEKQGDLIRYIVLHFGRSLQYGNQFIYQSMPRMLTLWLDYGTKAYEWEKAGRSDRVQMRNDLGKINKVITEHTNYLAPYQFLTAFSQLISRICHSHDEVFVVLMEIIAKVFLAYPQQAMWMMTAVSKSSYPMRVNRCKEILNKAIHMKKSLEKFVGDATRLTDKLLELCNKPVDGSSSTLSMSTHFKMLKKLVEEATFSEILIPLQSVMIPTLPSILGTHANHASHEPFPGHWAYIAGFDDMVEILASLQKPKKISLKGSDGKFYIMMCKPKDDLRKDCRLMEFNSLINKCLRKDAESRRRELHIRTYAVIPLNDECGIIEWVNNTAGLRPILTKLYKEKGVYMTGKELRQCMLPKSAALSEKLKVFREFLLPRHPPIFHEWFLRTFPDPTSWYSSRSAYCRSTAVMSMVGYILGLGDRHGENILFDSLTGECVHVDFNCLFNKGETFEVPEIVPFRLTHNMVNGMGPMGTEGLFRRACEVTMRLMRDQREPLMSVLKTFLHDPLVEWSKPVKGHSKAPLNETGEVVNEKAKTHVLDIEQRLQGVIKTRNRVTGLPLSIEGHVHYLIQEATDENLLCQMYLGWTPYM

T-24 = assay: Antiproliferative activity against human T24 cells assessed as reduction in cell viability incubated for 120 hrs by Cell-titer Glo luminescent assay; type: functional, cell-based
JeKo-1 [4] = assay: Antiproliferative activity against human JeKo-1 cells assessed as reduction in cell viability incubated for 120 hrs by Cell-titer Glo luminescent assay; type: functional, cell-based
Homo sapiens = species on record: Homo sapiens; assay: Inhibition of DNA-PK (unknown origin) at 10 uM preincubated for 15 mins and measured after 60 mins by Z-LYTE screening relative to control; details: time 75.0 min
[5] = target: Kappa-type opioid receptor (Homo sapiens) (UniProt P41145); assay: Inhibition of human kappa opioid at 10 uM; details: time 75.0 min
LoVo [6] = assay: Inhibition of DNA damage repair in human LoVo cells assessed as decrease in Chk1 expression level incubated for 24 hrs by Western blot analysis; type: functional, cell-based; details: dose 0.3-1 µM
U2OS = assay: Antiproliferative activity against human U2OS cells assessed as reduction in cell viability incubated for 120 hrs by Cell-titer Glo luminescent assay; type: functional, cell-based
LoVo [7] = assay: Induction of cell cycle arrest in human LoVo cells assessed as accumulation of cells at G2 phase incubated for 24 hrs by PI staining based flow cytometric analysis; type: functional; details: dose 1-3 µM
MDA-MB-453 = assay: Antiproliferative activity against human MDA-MB-453 cells assessed as reduction in cell viability incubated for 120 hrs by Cell-titer Glo luminescent assay; type: functional, cell-based
JeKo-1 [8] = assay: Antitumor activity against human JeKo-1 cells xenografted in female CB17 SCID mouse at 40 mg/kg BID, po administered as 3 days on and 4 days off schedule for 24 days; type: functional, organism-based; details: time 24.0 day
HepG2 = assay: Antiproliferative activity against human HepG2 cells assessed as reduction in cell viability incubated for 120 hrs by Cell-titer Glo luminescent assay; type: functional, cell-based
NCI-H1703 = assay: Antiproliferative activity against human NCI-H1703 cells assessed as reduction in cell viability incubated for 120 hrs by Cell-titer Glo luminescent assay; type: functional, cell-based
[9] = target: Serine/threonine-protein kinase mTOR (Homo sapiens, UniProt P42345); assay: Inhibition of mTOR (unknown origin) at 10 uM preincubated for 15 mins and measured after 60 mins by Z-LYTE screening relative to control; details: time 75.0 min
CWR22R [10] = assay: Antitumor activity against human 22Rv1 cells xenografted in male Balb/c nude mouse assessed as tumor growth inhibition at 10 to 60 mg/kg QD, po measured every 3 days for 18 days; type: functional, organism-based; details: dose 10-60 mg/kg, time 18.0 day
Huh-7 = assay: Antiproliferative activity against human Huh-7 cells assessed as reduction in cell viability incubated for 120 hrs by Cell-titer Glo luminescent assay; type: functional, cell-based
HCT-116 = assay: Antiproliferative activity against human HCT-116 cells assessed as reduction in cell viability incubated for 120 hrs by Cell-titer Glo luminescent assay; type: functional, cell-based
LoVo [11] = assay: Inhibition of DNA damage repair in human LoVo cells assessed as decrease in RAD51 expression level incubated for 24 hrs by Western blot analysis; type: functional, cell-based; details: dose 0.3-1 µM
CWR22R [12] = assay: Antiproliferative activity against human 22Rv1 cells incubated for 120 hrs by Cell-titer Glo luminescent assay
MCF7 = assay: Antiproliferative activity against human MCF7 cells assessed as reduction in cell viability incubated for 120 hrs by Cell-titer Glo luminescent assay; type: functional, cell-based
MDA-MB-436 = assay: Antiproliferative activity against human MDA-MB-436 cells assessed as reduction in cell viability incubated for 120 hrs by Cell-titer Glo luminescent assay; type: functional, cell-based
LoVo [13] = assay: Inhibition of DNA damage repair in human LoVo cells assessed as upregulation of p-Histone H2A.X protein level at 0.3 to 1 uM incubated for 24 hrs by Western blot analysis; type: functional, cell-based; details: dose 0.3-1 µM
SK-OV-3 = assay: Antiproliferative activity against human SK-OV-3 cells assessed as reduction in cell viability incubated for 120 hrs by Cell-titer Glo luminescent assay; type: functional, cell-based
LoVo [14] = assay: Inhibition of DNA damage repair in human LoVo cells assessed as decrease in MRE11 expression level incubated for 24 hrs by Western blot analysis; type: functional, cell-based; details: dose 0.3-1 µM
LNCaP = assay: Antiproliferative activity against human LNCaP cells assessed as reduction in cell viability incubated for 120 hrs by Cell-titer Glo luminescent assay; type: functional, cell-based
[15] = target: Proto-oncogene tyrosine-protein kinase ROS (Homo sapiens) (UniProt P08922); assay: Inhibition of ROS1 (unknown origin) at 10 uM preincubated for 15 mins and measured after 60 mins by Z-LYTE screening relative to control; details: time 75.0 min
Proto-oncogene tyrosine-protein kinase ROS (Homo sapiens), sequence (P08922 whole entry): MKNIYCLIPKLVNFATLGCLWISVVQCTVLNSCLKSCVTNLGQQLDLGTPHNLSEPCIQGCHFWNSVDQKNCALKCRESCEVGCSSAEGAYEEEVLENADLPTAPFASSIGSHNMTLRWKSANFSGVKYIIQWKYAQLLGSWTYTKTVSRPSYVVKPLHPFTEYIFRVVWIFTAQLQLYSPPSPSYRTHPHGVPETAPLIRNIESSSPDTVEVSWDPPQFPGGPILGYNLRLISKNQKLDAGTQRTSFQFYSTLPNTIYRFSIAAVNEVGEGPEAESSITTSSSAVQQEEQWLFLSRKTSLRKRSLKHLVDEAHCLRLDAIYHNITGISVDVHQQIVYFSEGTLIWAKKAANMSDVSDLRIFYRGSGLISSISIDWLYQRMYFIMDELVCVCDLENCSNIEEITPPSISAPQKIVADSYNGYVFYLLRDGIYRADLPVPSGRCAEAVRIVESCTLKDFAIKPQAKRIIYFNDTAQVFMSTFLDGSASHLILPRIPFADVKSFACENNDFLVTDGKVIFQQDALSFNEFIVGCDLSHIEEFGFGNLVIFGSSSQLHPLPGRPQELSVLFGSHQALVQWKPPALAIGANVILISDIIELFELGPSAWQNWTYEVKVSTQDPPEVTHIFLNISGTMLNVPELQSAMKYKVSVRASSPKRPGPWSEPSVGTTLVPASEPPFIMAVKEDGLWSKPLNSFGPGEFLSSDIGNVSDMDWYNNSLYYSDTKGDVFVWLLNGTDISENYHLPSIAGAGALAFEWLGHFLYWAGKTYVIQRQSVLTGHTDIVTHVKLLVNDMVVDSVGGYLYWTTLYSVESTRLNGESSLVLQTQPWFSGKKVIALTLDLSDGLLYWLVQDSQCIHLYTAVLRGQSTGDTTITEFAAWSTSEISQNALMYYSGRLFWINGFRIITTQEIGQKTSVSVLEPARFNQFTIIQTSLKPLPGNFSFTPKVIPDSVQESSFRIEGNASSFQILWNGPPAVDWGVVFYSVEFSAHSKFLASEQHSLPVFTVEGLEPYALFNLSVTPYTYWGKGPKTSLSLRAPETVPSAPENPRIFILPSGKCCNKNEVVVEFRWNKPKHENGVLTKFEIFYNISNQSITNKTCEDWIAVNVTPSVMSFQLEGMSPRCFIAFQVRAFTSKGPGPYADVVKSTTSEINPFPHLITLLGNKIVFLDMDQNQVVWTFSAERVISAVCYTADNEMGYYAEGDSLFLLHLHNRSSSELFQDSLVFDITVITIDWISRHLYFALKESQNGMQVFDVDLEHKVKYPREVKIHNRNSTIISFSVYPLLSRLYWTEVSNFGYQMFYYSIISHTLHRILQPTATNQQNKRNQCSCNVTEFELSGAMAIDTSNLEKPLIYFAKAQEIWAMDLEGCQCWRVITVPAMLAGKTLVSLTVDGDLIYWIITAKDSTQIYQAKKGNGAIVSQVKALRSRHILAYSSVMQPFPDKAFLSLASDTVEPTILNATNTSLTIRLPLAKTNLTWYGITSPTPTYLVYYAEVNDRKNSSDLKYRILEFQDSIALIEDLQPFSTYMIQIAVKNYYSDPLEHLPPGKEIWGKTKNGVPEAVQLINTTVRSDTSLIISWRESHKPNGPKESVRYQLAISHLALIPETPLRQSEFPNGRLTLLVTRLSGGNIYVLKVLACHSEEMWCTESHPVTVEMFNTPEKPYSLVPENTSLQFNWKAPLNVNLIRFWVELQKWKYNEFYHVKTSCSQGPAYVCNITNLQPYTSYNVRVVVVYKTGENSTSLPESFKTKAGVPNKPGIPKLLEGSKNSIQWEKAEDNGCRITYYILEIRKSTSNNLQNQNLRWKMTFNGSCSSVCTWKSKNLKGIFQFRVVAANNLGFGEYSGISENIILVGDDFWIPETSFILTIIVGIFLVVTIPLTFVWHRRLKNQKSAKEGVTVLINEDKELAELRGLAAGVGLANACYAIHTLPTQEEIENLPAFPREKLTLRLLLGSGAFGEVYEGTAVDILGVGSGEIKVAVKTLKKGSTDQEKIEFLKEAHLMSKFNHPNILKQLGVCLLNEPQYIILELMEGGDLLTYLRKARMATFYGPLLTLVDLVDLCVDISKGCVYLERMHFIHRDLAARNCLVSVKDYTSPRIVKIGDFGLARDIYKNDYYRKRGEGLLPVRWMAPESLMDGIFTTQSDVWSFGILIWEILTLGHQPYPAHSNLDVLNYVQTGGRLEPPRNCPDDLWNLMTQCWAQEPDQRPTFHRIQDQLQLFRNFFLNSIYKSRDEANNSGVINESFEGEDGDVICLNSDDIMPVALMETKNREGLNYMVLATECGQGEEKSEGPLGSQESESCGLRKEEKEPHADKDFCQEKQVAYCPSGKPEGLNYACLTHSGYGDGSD

A2780 = assay: Antiproliferative activity against human A2780 cells assessed as reduction in cell viability incubated for 120 hrs by Cell-titer Glo luminescent assay; type: functional, cell-based
OVCAR-8 = assay: Antiproliferative activity against human OVCAR-8 cells assessed as reduction in cell viability incubated for 120 hrs by Cell-titer Glo luminescent assay; type: functional, cell-based
NCI-H69 = assay: Antiproliferative activity against human NCI-H69 cells assessed as reduction in cell viability incubated for 120 hrs by Cell-titer Glo luminescent assay; type: functional, cell-based
[16] = target: Phosphatidylinositol 4-phosphate 3-kinase C2 domain-containing subunit beta (Homo sapiens) (UniProt O00750); assay: Inhibition of PIK3C2B (unknown origin) at 10 uM preincubated for 15 mins and measured after 60 mins by Z-LYTE screening relative to control; details: time 75.0 min
A549 = assay: Antiproliferative activity against human A549 cells assessed as reduction in cell viability incubated for 120 hrs by Cell-titer Glo luminescent assay; type: functional, cell-based
MDA-MB-231 = assay: Antiproliferative activity against human MDA-MB-231 cells assessed as reduction in cell viability incubated for 120 hrs by Cell-titer Glo luminescent assay; type: functional, cell-based
KATO III = assay: Antiproliferative activity against human KATO III stomach cancer cell line assessed as reduction in cell viability incubated for 120 hrs by Cell-titer Glo luminescent assay; type: functional, cell-based

## Cc1n[nH]c(C)c1-c1nc(N2CCOC[C@H]2C)c2nc(-c3cccc4[nH]ccc34)ccc2n1
LoVo [1]
  IC50: 0.246 µM

## Cc1cc(-c2cnn3c(-c4c(C)nn(-c5cccnc5)c4C)cc(N4CC5CCC(C4)O5)nc23)[nH]n1
CWR22R [2]
  IC50: 0.15 µM

## Cc1n[nH]c(C)c1-c1cc(N2CC3CCC(C2)O3)nc2c(-c3ccn[nH]3)cnn12
CWR22R [2]
  IC50: 0.614 µM

## Cc1nn(-c2cncc(Cl)c2)c(C)c1-c1cc(N2CC3CCC(C2)O3)nc2c(-c3ccn[nH]3)cnn12
CWR22R [2]
  IC50: 0.675 µM

## Cc1n[nH]c(C)c1-c1cc(N2CC3CCC(C2)O3)nc2c(-c3ccnn3C)cnn12
[3]
  IC50: > 0.5 µM
CWR22R [2]
  IC50: 6.48 µM

## Cc1n[nH]c(C)c1-c1cc(N2CC3CCC(C2)O3)n2ncc(-c3cnn(C)c3C)c2n1
[3]
  IC50: > 0.5 µM
CWR22R [2]
  IC50: > 10 µM

## Cc1nn(-c2cccnc2)c(C)c1-c1cc(N2C3CCC2COC3)nc2c(-c3ccn[nH]3)cnn12
CWR22R [2]
  IC50: 0.332 µM

## Cc1nn(-c2ccc(N)nc2)c(C)c1-c1cc(N2CC3CCC(C2)O3)nc2c(-c3ccn[nH]3)cnn12
CWR22R [2]
  IC50: 0.199 µM

## Cc1nn(C2CCCNC2)c(C)c1-c1cc(N2CC3CCC(C2)O3)nc2c(-c3ccn[nH]3)cnn12 (centres undefined)
CWR22R [2]
  IC50: 4.53 µM

## Cc1cncc(-n2nc(C)c(-c3cc(N4CC5CCC(C4)O5)nc4c(-c5ccn[nH]5)cnn34)c2C)c1
[3]
  IC50: 0.01 µM
CWR22R [2]
  IC50: 0.234 µM

## Cc1nn(-c2ccncc2)c(C)c1-c1cc(N2CC3CCC(C2)O3)nc2c(-c3ccn[nH]3)cnn12
CWR22R [2]
  IC50: 1.79 µM

## Cc1nn(-c2cncc(C(F)(F)F)c2)c(C)c1-c1cc(N2CC3CCC(C2)O3)nc2c(-c3ccn[nH]3)cnn12
CWR22R [2]
  IC50: 2.82 µM

## Cc1n[nH]c(C)c1-c1cc(N2CC3CCC(C2)O3)nc2c(-c3ccccc3)cnn12
CWR22R [2]
  IC50: 0.872 µM

## Cc1nn(-c2cccnc2)c(C)c1-c1cc(N2CC3CCC(C2)O3)nc2c(-c3ccn[nH]3)cnn12 [listing 1 of 2 here]
CWR22R [2]
  IC50: 0.216 µM

## Cc1nn(C2CCNCC2)c(C)c1-c1cc(N2CC3CCC(C2)O3)nc2c(-c3ccn[nH]3)cnn12
CWR22R [2]
  IC50: 4.33 µM

## Cc1n[nH]c(C)c1-c1cc(N2CC3CCC(C2)O3)n2ncc(-c3cn[nH]c3)c2n1
CWR22R [2]
  IC50: 1.73 µM

## Cc1nn(-c2cncnc2)c(C)c1-c1cc(N2CC3CCC(C2)O3)nc2c(-c3ccn[nH]3)cnn12
CWR22R [2]
  IC50: 1.41 µM

## Cc1nn(-c2cncc(Br)c2)c(C)c1-c1cc(N2CC3CCC(C2)O3)nc2c(-c3ccn[nH]3)cnn12
CWR22R [2]
  IC50: 0.437 µM

## Cc1nn(-c2cncc(F)c2)c(C)c1-c1cc(N2CC3CCC(C2)O3)nc2c(-c3ccn[nH]3)cnn12
CWR22R [2]
  IC50: 1.33 µM

## COc1cncc(-n2nc(C)c(-c3cc(N4CC5CCC(C4)O5)nc4c(-c5ccn[nH]5)cnn34)c2C)c1
CWR22R [2]
  IC50: 0.37 µM

## Cc1n[nH]c(C)c1-c1cc(N2CC3CCC(C2)O3)n2ncc(-c3ccccc3)c2n1
[3]
  IC50: > 0.5 µM
CWR22R [2]
  IC50: > 10 µM

## Cc1n[nH]c(C)c1-c1cc(C23CCC(CNC2)O3)nc2c(-c3cccs3)cnn12 (centres undefined)
CWR22R [2]
  IC50: 0.988 µM

## Cc1n[nH]c(C)c1-c1cc(N2CC3CCC(C2)O3)n2ncc(-c3cnn(C)c3)c2n1
CWR22R [2]
  IC50: 0.943 µM

## CCOc1cncc(-n2nc(C)c(-c3cc(N4CC5CCC(C4)O5)nc4c(-c5ccn[nH]5)cnn34)c2C)c1
CWR22R [2]
  IC50: 0.515 µM

## Cc1nn(-c2cncc(C(F)F)c2)c(C)c1-c1cc(N2CC3CCC(C2)O3)nc2c(-c3ccn[nH]3)cnn12
CWR22R [2]
  IC50: 0.972 µM

## Cc1n[nH]c(C)c1-c1cc(N2CC3CCC(C2)O3)n2ncc(-c3ccnn3C)c2n1
CWR22R [2]
  IC50: 6.73 µM

## Cc1nn(-c2cccnc2)c(C)c1-c1cc(N2CC3CCC(C2)O3)nc2c(-c3ccn[nH]3)cnn12 [listing 2 of 2 here]
T-24
  Activity: Active
JeKo-1 [4]
  Activity: Active
Homo sapiens
  inhibition: > 80%
[5]
  inhibition: Active
LoVo [6]
  inhibition: Dose-dependent-effect
U2OS
  Activity: Active
LoVo [7]
  Activity: Dose-dependent-effect
MDA-MB-453
  Activity: Active
JeKo-1 [8]
  Activity: Active
HepG2
  Activity: Active
NCI-H1703
  Activity: Active
[9]
  inhibition: > 80%
CWR22R [10]
  TGI: Active
Huh-7
  Activity: Active
HCT-116
  Activity: Active
LoVo [11]
  inhibition: Dose-dependent-effect
CWR22R [12]
  Activity: Active
MCF7
  Activity: Active
MDA-MB-436
  Activity: Active
LoVo [13]
  inhibition: Active
SK-OV-3
  Activity: Active
LoVo [14]
  inhibition: Dose-dependent-effect
LNCaP
  Activity: Active
[15]
  inhibition: > 80%
A2780
  Activity: Active
OVCAR-8
  Activity: Active
NCI-H69
  Activity: Active
[16]
  inhibition: > 80%
A549
  Activity: Active
MDA-MB-231
  Activity: Active
KATO III
  Activity: Active

## Cc1nn(-c2cccnc2)c(C)c1-c1cc(N2C[C@H]3C[C@@H]2CO3)nc2c(-c3ccn[nH]3)cnn12
CWR22R [2]
  IC50: > 10 µM

## Cc1nn(-c2cncc(C#N)c2)c(C)c1-c1cc(N2CC3CCC(C2)O3)nc2c(-c3ccn[nH]3)cnn12
CWR22R [2]
  IC50: 1.41 µM

## Cc1nn(-c2cccnc2)c(C)c1-c1cc(N2C[C@@H]3C[C@H]2CO3)nc2c(-c3ccn[nH]3)cnn12
CWR22R [2]
  IC50: 4.08 µM
